Reference: patent US8796328B2, “TRPV1 antagonists” (AbbVie Inc., priority 2012, dated 2014)

What was measured:
[1] = target: human TRPV1 receptor (hTRPV1) (Homo sapiens (Human), UniProt Q8NER1); experiment: Acid activation assay (pH 5.0, FLIPR intracellular Ca2+); type: cell-based; details: 37.5 μM compound
[2] = system: rats; experiment: Rat tail immersion assay (noxious thermosensation, 55° C. water bath); type: in vivo
Protocol: Compounds were tested for their effects on noxious thermosensation using the tail immersion assay. Testing was performed one hour following oral administration of 100 μmol/kg of the compound in 10% ethanol/20% Tween-80/70% PEG-400 (2 mL/kg). Mophine (6 mg/kg) was administered interperitoneally (i.p.) using saline (2 mL/kg) as the vehicle. For testing, a circulating water bath was heated to 55° C. Thirty to sixty minutes post dosing, the rats were handled for a few seconds to calm them down and then cupped with their back against the testers hand at a slight angle with head facing away from tester. With rat in one hand and a 0.01 second stopwatch in the other hand, the tail was quickly immersed 6-8 cm in water bath or to a distance leaving 2-3 cm of tail out of water. The timer was started simultaneously. When the rat flinched or attempted withdrawal, timer was immediately stopped and the rat's tail was quickly removed from water bath. This response latency (in seconds) was recorded. Process was repeated 3 times with 3-4 minutes between readings for a final average.
For a given example, a percent increase in the average response latency (in seconds) for tail withdrawal relative to a vehicle control was determined % increase=[(tc−tv)/tv]×100%
tc=response time (in seconds) with oral dosing of compounds
tv=response time (in seconds) with oral dosing of vehicle
The % increases in tail withdrawal latency relative to vehicle control are divided into the following categories: […]

[3] = system: rats; experiment: Rat acute capsaicin-induced flinching behavior; type: in vivo; details: single acute oral dose 100 μmol/kg, capsaicin 2.5 μg one hour after dosing, five minute observation
Protocol: Rats were placed in individual observation cages. Following an acclimation period of 30 minutes, selected compounds were administered orally at a dose of 100 μmol/kg orally in a vehicle (10% ethanol/20% Tween 80/70% polyethylene glycol-400) at a volume of 2 mL/kg. One hour after administration of the compound, 2.5 μg of capsaicin in a 10 μL solution of 10% ethanol/90% hydroxypropyl-β-cyclodextrin was injected subcutaneously into the dorsal aspect of the right hind paw. The observation cage was then suspended above mirrors in order to facilitate observation. […] The number of flinching behaviors of the injured paw was recorded during the five minute observation period (Gilchrist, H. D.; Allard, B. L.; Simone, D. A.; Enhanced withdrawal responses to heat and mechanical stimuli following intraplantar injection of capsaicin in rats. Pain, 1996, 67, 179-188). A single acute oral dose of Example 10 as described above produced a 56% reduction in flinching behavior relative to vehicle-treated animals.

Chain of human TRPV1 receptor (hTRPV1) (Q8NER1 whole entry): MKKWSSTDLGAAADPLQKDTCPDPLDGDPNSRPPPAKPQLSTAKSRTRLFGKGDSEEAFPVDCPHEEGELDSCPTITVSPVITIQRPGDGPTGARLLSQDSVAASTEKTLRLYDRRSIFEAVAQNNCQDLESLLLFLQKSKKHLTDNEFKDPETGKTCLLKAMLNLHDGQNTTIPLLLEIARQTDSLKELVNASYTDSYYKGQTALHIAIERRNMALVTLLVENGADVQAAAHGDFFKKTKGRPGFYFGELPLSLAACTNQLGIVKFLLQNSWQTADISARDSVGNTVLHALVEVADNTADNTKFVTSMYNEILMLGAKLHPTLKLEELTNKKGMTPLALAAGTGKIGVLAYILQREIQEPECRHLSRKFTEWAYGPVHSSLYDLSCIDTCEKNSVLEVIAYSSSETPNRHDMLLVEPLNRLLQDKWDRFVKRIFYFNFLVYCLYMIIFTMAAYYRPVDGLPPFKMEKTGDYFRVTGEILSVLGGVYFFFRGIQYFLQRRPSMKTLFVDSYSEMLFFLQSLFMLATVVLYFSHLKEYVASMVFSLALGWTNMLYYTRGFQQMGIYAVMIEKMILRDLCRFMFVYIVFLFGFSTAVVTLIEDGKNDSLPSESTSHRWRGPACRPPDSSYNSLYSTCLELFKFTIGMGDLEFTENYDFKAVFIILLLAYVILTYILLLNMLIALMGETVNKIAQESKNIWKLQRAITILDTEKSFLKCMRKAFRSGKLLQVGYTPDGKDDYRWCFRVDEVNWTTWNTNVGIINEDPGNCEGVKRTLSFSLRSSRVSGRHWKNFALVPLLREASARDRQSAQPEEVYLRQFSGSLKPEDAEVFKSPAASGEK

## CS(=O)(=O)Nc1ccc(CNC(=O)N[C@@H]2CC(CF)(CF)Oc3cc(C(F)(F)F)ccc32)cc1F [Example 10, N-{4-[({[(4R)-2,2-bis(fluoromethyl)-7-(trifluoromethyl)-3,4-dihydro-2H-chromen-4-yl]carbamoyl}amino)methyl]-2-fluorophenyl}methanesulfonamide]
[1]; percentage of the maximal pH 5.0-induced response remaining, read-out: hTRPV1 H+ (max % remain)
  remaining activity at 37.5 µM: 72%
[1]; Table 2, percentage of maximal pH 5.0-induced response
  human TRPV1 H+ (max % remain): 72%
[2]; rat, oral 100 μmol/kg, one hour post dosing, relative to vehicle
  % Increase in Tail Withdrawal Latency: −
[2]; rats, after oral administration
  increase in tail withdrawal latency relative to vehicle-treated animals: < 10%
[3]
  reduction in flinching behavior relative to vehicle-treated animals: 56%
